Assay results from patent US20240216344A1, “THIAZOLIDINEDIONE ANALOGS FOR THE TREATMENT OF NAFLD AND METABOLIC DISEASES” (Cirius Therapeutics, Inc., priority 2019, published 2024).

Legend:
MPC = biological target: T1, MPC (Homo sapiens, UniProt O95563+Q9Y5U8); test: Relative binding affinity for the MPC (FIG. 8)
T1 sequence (Q9Y5U8 1-109): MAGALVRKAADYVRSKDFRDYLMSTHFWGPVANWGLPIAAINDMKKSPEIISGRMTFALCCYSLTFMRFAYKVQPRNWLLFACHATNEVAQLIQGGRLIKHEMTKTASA
T1 sequence (O95563 1-127): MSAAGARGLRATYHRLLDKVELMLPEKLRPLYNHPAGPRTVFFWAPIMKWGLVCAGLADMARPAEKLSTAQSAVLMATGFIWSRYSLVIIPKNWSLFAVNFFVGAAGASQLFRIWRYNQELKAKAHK

[1] = system: diet-induced obese (60% HF diet) LS-MPC2−/− and WT (fl/fl) mice; test: Single gavage dose in diet-induced obese WT and LS-MPC2−/− mice: GTT, plasma insulin, plasma ALT, liver qPCR; type: in vivo; details: for glucose tolerance (GTT): 20 h after a single dose of 30 mg/kg
Procedure: 8 week old WT and LS-MPC2−/− mice were fed a diet of 60% fat (Research Diets D12492) for 20 weeks to induce obesity and insulin resistance. Intraperitoneal glucose tolerance tests (GTT) were performed after a 4 h fast by injection of 1 g/kg D-glucose in saline i.p. to assess glucose tolerance. 3 days after the initial GTT, mice were randomized to receive a single gavage of either vehicle (1% CMC, 0.01% Tween-80) or 30 mg/kg MSDC-0602K. Plasma insulin was measured by Singulex assay and plasma ALT levels were measured by commercially-available kits (Teco Diagnostics). qPCR was performed by isolation of total RNA with RNA-Bee and reverse transcription with a high-capacity cDNA synthesis kit (Invitrogen). qPCR was performed on an Applied Biosystems real-time thermocycler.
WT (fl/fl) and LS-MPC2−/− mice were put on 60% HF diet and became equally obese. […] (FIGS. 1A-1C).

[2] = system: mouse model of NASH (HTF-C diet); test: NASH (HTF-C) diet mice: serum small RNA sequencing; type: in vivo; details: HTF-C diet containing 331 ppm
Procedure: To begin evaluating the exosome cargo of MSDC-0602K-treated mice, WT mice were fed with either a low fat (LF) control diet (Research Diets D09100304) or high trans-fat, fructose, cholesterol (HTF-C) diet composed of 40% trans-fat, 20% fructose, 2% cholesterol (Research Diets D09100301).
Total RNA was isolated from 400 μL of serum and small RNA sequencing was performed by adapter ligation, cDNA synthesis and size selection of 145-160 base pairs. Sequencing was then performed on an Illumina HiSeq3000.
Heat map miRNAs (˜230 miRNAs) were selected by filtering data for 2-fold or greater change and FDR<0.1 comparing LF to HTF-C diet (not shown). […] Dysregulation of a number of these miRNAs has been previously identified in liver or other fibrotic diseases.

[3] = Phase 1 clinical trials in healthy volunteers (PK, safety); type: in vivo, human; details: 126 healthy volunteers

## COc1cccc(C(=O)COc2ccc(CC3SC(=O)NC3=O)cc2)c1 (stereo not drawn) [MSDC-0602]
MPC
  binding to the MPC: maintain, and in some cases improve
[1]; LS-MPC2−/− mice
  glucose tolerance (GTT): no improvement in glucose tolerance
[1]; LS-MPC2−/− mice, acute treatment
  beneficial effects on markers of liver injury: refractory
[1]; WT mice
  glucose tolerance (GTT): improved glucose tolerance
[1]; WT mice, single dose
  gene expression for hepatic stellate cell activation and fibrotic scar formation: decreased gene expression
  plasma ALT concentrations: decreased plasma ALT concentrations
[1]; both WT and LS-MPC2−/− mice, single dose 30 mg/kg
  plasma insulin values: decreased
[2]
  serum miRNAs altered in a mouse model of NASH: largely corrected
[3]
  deaths, serious or severe adverse events, discontinuations due to adverse events: abdominal bloating. No deaths, serious adverse events, severe adverse
